{"source": "patent US20230374177A1", "about": "“CYTOSOLIC MICROPARTICLES, PHAGOCYTIC CELLS COMPRISING THE SAME, AND METHODS FOR TREATING DISEASE COMPRISING THE SAME” (Florida State University Research Foundation, Inc., priority 2022, published 2023)", "data": [{"tested_on": "RAW264.7 macrophages", "experiment": "Effects of factors on phagosomal rupture at 22° C.", "format": "cell-based", "settings": "22° C. cold shock; chloroquine 100 μM 30 min, tetrandrine 5 μM 30 min, colchicine 5 μM 3 h, LLOMe 1 mM 30 min, hypotonic shock 0.6×PBS", "protocol": "Incubation of macrophages with microparticles. […] A prewarmed suspension of macrophages in the complete medium (3.5×10^5 cells/mL, 1 mL, 37° C.) supplemented with LPS (1 μg/mL) was added into a chamber and incubated (5% CO2, 37° C.) for the specified period.\nControl. […] After 3 h, the complete medium was replaced with PBS (1 mL, 22° C.) and maintained for 2 min before being imaged.\nHypotonic shock. 0.6×PBS was prepared by mixing PBS with H2O (volume ratio=6:4). […] After 3 h, the complete medium was replaced with the 0.6×PBS (1 mL, 22° C.) and maintained for 2 min before being imaged.\nChloroquine. […] After 2.5 h, chloroquine (10 mM in DMEM) was added to the culture to reach 100 μM and further incubated (5% CO2, 37° C.) for 30 min. The complete medium was replaced with PBS (1 mL, 22° C.) and maintained for 2 min before being imaged.\nTetrandrine. […] After 2.5 h, tetrandrine (5 mM in DMSO) was added to the culture to reach 5 μM and further incubated (5% CO2, 37° C.) for 30 min. The complete medium was replaced with PBS (1 mL, 22° C.) and maintained for 2 min before being imaged.\nColchicine. […] After 3 h, colchicine (2.5 mM in DMEM) was added to the culture at 5 μM and further incubated (5% CO2, 37° C.) for 3 h. The complete medium was replaced with PBS (1 mL, 22° C.) and maintained for 2 min before being imaged.\nLLOMe. […] After 2.5 h, LLOMe (10 mM in DMEM) was added to the culture at 1 mM and further incubated (5% CO2, 37° C.) for 30 min. The complete medium was replaced with PBS (1 mL, 22° C.) and maintained for 2 min before being imaged.\nFor each factor, an experiment was conducted to study its effect. […] Exposure of the macrophages to each factor was conducted either during or before the cold shock.", "values": [{"molecule": "CCN(CC)CCCC(C)Nc1ccnc2cc(Cl)ccc12", "note": "(stereo not drawn) [Chloroquine]", "effect on percentage of phagosomal rupture at 22° C. compared to the control": "did not induce a significant effect"}, {"molecule": "COC(=O)[C@H](CC(C)C)NC(=O)[C@@H](N)CC(C)C.Cl", "note": "[LLOMe, L-Leucyl-L-leucine methyl ester hydrochloride]", "effect on percentage of phagosomal rupture at 22° C. compared to the control": "significantly increased"}, {"molecule": "COc1cc2c(c(OC)c1OC)-c1ccc(OC)c(=O)cc1[C@@H](NC(C)=O)CC2", "note": "[Colchicine]", "effect on percentage of phagosomal rupture at 22° C. compared to the control": "insignificant"}]}]}
